Data set [1] relates to B16F10-Nex2 melanoma cells. Description: melanoma cell viability by Trypan Blue exclusion. Conditions: 1 mM to 0.05 mM, 12 hr. As to the method: In vitro activity of N10K against B16F10-Nex2, SKme128 and SKme125 melanoma cells. Peptide N10K and the relative scramble peptide (SP) used as negative control were diluted from 1 mM to 0.05 mM in RPMI with 10% FCS and incubated with B16F10-Nex2, SKme128 and SKme125 cells (5×10^3 cells/well) in 100 microliters per well for 12 hr at 37° C. Each peptide was tested in triplicate. After 12 hr, the cytotoxic activities of the peptides were determined by measuring cell viability by Trypan Blue exclusion. A 50% inhibition of cell growth was taken as a comparative index of cytotoxicity (EC50).
In vitro activity of T11F against B16F10-Nex2, SKme128 and SKme125 melanoma cells. Peptide T11F and the relative scramble peptide (SP) used as negative control were diluted from 1 mM to 0.05 mM in RPMI with 10% FCS and incubated with B16F10-Nex2, SKme128 and SKme125 cells (5×10^3 cells/well) in 100 microL per well for 12 hr at 37 u° C. Each peptide was tested in triplicate. After 12 hr, the cytotoxic activities of the peptides were determined by measuring cell viability by Trypan Blue exclusion. A 50% inhibition of cell growth was taken as a comparative index of cytotoxicity (EC50).

The subject of data set [2] is C. neoformans 6995 strain. Conditions: 6 hours 37° C.; multiple experiments.
Protocol: After the incubation period, the cell suspensions have been plated on Sabouraud dextrose agar, then incubated at 30° C. and observed for CFU enumeration after 48 hours.
The test system of data set [3] is C. albicans SC5314 strain. As to the method:
In vitro activity of N10K against C. albicans SC5314 strain. The candidacidal activity of N10K peptide against C. albicans was assessed by a conventional colony forming unit (CFU) assay as previously described (Polonelli et al., 2003; Manfredi et al., 2005). Briefly, cells of C. albicans SC5314 were incubated at 37° C. for 6 hours (hr) in the presence of N10K at the concentration indicated of 20, 12.5 or 6.25 microgram/ml, or in distilled water as control (C). After incubation, cell suspensions were plated on Sabouraud dextrose agar and incubated at 30° C. for 48 hours when CFU were counted (** P<0.01 for N10K treated versus untreated cells, by t test). […]
The alanine-substituted derivatives (asd), defined according to the position held by the alanine-substituted aminoacid, were tested against C. albicans by a conventional colony forming unit (CFU) as previously described (Polonelli et al., 2003). Briefly, cells of C. albicans SC5314 were incubated at 37° C. for 6 hours in the presence of N10K or N10K asd at different scalar concentrations or distilled water as control. After incubation, cell suspensions were plated on Sabouraud dextrose agar and incubated at 30° C. for 48 hours when CFU were counted. Based on several independent replications, the EC50 value of each peptide was calculated by nonlinear regression analysis using Graph Pad Prism 4.01 software, San Diego, Calif., USA. […]
In vitro microbicidal activity of N10K derivative with 2 amino acid substitutions, or 80% sequence identity with native N10K, namely peptide Seq Id. No. 25 was tested against Candida albicans SC5314 as determined by Colony Forming Unit assay.

In another data set the test system is PBMC. Description: AlamarBlue cell viability assay on PBMC. Conditions: 1-20 micrograms/ml concentration range, 24 hours. The procedure: In vitro activity of N10K against HIV-1. PBMC from healthy donors were cultured at the concentration of 2×10^6 cells/ml in 96 wells plates with RPMI 1640 supplemented with 10% FBS, 1% glutamine and 20 UI/ml rIL-2 for 24 hr before treatment with N10K, then the peptide was added at increasing concentrations (1, 10 and 20 micrograms/ml) for 24 hours. AlamarBlue was added (10% v/v) and incubated for 4 hours at 37° C. Cells viability was determined by the AlamarBlue Assay (Biosource International, Inc.). The absorbance was measured with an ELISA plate reader (Tecan Sunrise Absorbance Reader) at the double wavelength of 570/595 nm. AlamarBlue added to the complete RPMI1640 medium was used as blank. […] To verify the anti-HIV-1 activity, an in vitro infection applying two different experimental approaches was performed. PBMC from 3 healthy donors were purified by Ficoll gradient centrifugation, mixed in pool and cultured in RPMI 1640 medium (10% FBS, 1% glutamine and 1% penicillin streptomycin). Before infection cells were stimulated for 24 hours with PHA (5 micrograms/ml) and after with rIL-2 (20 UI/ml). […] Viral replication was evaluated measuring the concentration of the p24 antigen in the culture supernatants by the HIV p24 ELISA Ultrasensitive detection kit (PerkinElmer, Inc.). […]

A further data set has as its system U937 cell line. Description: annexine-V/propidium iodide flow cytometry on U937. Conditions: annexine-V/propidium iodide staining. On the technique in general: Flow cytometry measures light scatter and fluorescence of single cells or particles in a stream.

Read-outs that look alike come from different tables or passages of the source. Where no end group is shown, it is not given here.

In general, EC50 refers to the midpoint of the concentration-response curve. Turning to “NQVSLTCLVK [Peptide N10K, N Q V S L T C L V K]”, the “cytotoxic activity (cell viability)” value in data set [1] is on record as “showed activity”. Besides, the EC50 in data set [2] worked out at 5.16 µM; in data set [3] (6 hours 37° C., several independent replications, peptide batches of Examples I and II) it was 10 µM; in data set [3] (SC5314, 6 h), 1 µM. For the same sequence, the “cytotoxicity for PBMC (cell viability)” value with PBMC is “not to be cytotoxic”. Moreover, in the data set on U937 cell line, the “induction of apoptotic/necrotic effects” value is listed as “exclude the induction of apoptotic/necrotic effects”.
